Experimental data as given in patent publication US20090030179A1, “ANTIMICROBIAL PEPTIDE AND USE THEREOF” (TOAGOSEI CO., LTD, priority 2005, published 2009).
Residues, ends and D or L forms follow the SMILES beside them.

Assays:
[1] = test system: Gram-positive bacteria (Staphylococcus aureus); assay type: cell-based; details: for Antimicrobial Activities (MIC) S. aureus: Gram-positive bacteria, 24 h
Experimental: (§1) Regarding the antimicrobial peptides (samples 1 to 12) and the peptide of comparative sample 1 related to the present invention, their antimicrobial activities (minimum inhibitory concentration: MIC) against Gram-negative bacteria (Escherichia coli) and Gram-positive bacteria (Staphylococcus aureus) were determined, as described below, by liquid medium dilution method using a 96-well microplate. […] The prepared liquid broth media containing the peptide at each concentration described above were then loaded onto 96-well microplates in 100-μL aliquots. At the same time, the tested bacteria cultured for 18 hours at 37° C. on an agar plate (“Muller Hinton Agar” manufactured by DIFCO) were collected by scraping with a loop, and then suspended in sterilized physiological saline. 5 μL of bacterial suspension prepared to be equivalent to 2×10^7 cells/mL was inoculated (number of bacteria to be tested: approximately 1×10^6 cells/mL) into each well of the above-described microplate filled with the liquid broth media containing the peptide at each concentration. After inoculation, the microplate was then incubated in an incubator at 37° C., and the presence of bacteria was evaluated based on the turbidity after 24 hours. The minimum drug concentration (polypeptide concentration), at which no increase in bacterial turbidity was detected at the time of measurement, was defined as MIC (minimum inhibitory concentration) (unit: μM) in the present embodiment.

[2] = test system: Gram-negative bacteria (Escherichia coli); assay type: cell-based; details: for Antimicrobial Activities (MIC) E. coli: Gram-negative bacteria, 24 h
Experimental: as §1

Row | Compound | Antimicrobial Activities (MIC) S. aureus [1] | Antimicrobial Activities (MIC) E. coli [2] | antimicrobial activity (in words), S. aureus ([1]; summary of Table 2) | antimicrobial activity (in words), E. coli ([2]; summary of Table 2)
1 | CC(C)C[C@H](NC(=O)[C@H](CS)NC(=O)[C@H](CCCNC(=N)N)NC(=O)[C@H](CCC(=O)O)NC(=O)[C@H](CCCCN)NC(=O)[C@H](CC(C)C)NC(=O)[C@@H](N)[C@@H](C)O)C(=O)N[C@@H](CCC(N)=O)C(=O)N[C@H](C(=O)N[C@H](C(=O)N[C@@H](CCCNC(=N)N)C(=O)N[C@@H](CO)C(=O)N[C@@H](CC(C)C)C(=O)N[C@H](C(=O)N[C@@H](CCCCN)C(N)=O)C(C)C)C(C)C)C(C)C [Sample 1, TLKERCLQVVRSLVK] | 3.13 µM | 6.25 µM |  | 
2 | CC[C@H](C)[C@H](NC(=O)[C@H](Cc1c[nH]cn1)NC(=O)[C@H](CCC(N)=O)NC(=O)[C@H](CC(C)C)NC(=O)[C@@H](N)CO)C(=O)N[C@@H](CS)C(=O)N[C@@H](CCCNC(=N)N)C(=O)N[C@H](C(=O)N[C@H](C(=O)N[C@H](C(=O)N[C@@H](CS)C(=O)N[C@@H](CC(N)=O)C(=O)N[C@@H](CS)C(=O)N[C@H](C(=O)N[C@H](C(N)=O)[C@@H](C)O)[C@@H](C)O)[C@@H](C)CC)C(C)C)[C@@H](C)O [Sample 7, SLQHICRTVICNCTT] (H-SLQHICRTVICNCTT-NH2) | 50 µM |  |  | 
3 | CC[C@H](C)[C@H](NC(=O)[C@H](Cc1ccc(O)cc1)NC(=O)[C@H](CCC(N)=O)NC(=O)[C@H](CC(C)C)NC(=O)[C@@H](N)CO)C(=O)N[C@@H](CS)C(=O)N[C@@H](CCCNC(=N)N)C(=O)N[C@@H](C)C(=O)N[C@H](C(=O)N[C@H](C(=O)N[C@@H](CS)C(=O)N[C@@H](CCCNC(=N)N)C(=O)N[C@@H](CS)C(=O)N[C@H](C(=O)N[C@H](C(N)=O)[C@@H](C)O)[C@@H](C)O)[C@@H](C)CC)C(C)C [Sample 8, SLQYICRAVICRCTT] (H-SLQYICRAVICRCTT-NH2) | 50 µM |  |  | 
4 | H-PLAHLCRLRVRKAIG-NH2 [Sample 11, PLAHLCRLRVRKAIG] | 12.5 µM |  |  | 
5 | H-SLKHLCRKALRSFLT-NH2 [Sample 10, SLKHLCRKALRSFLT] | 12.5 µM |  |  | 
6 | H-SLQHICRMSIRRVMS-NH2 [Sample 3, SLQHICRMSIRRVMS] | 6.25 µM | 12.5 µM |  | 
7 | H-SLQHLCRFRIRQLVR-NH2 [Sample 9, SLQHLCRFRIRQLVR] | 12.5 µM |  |  | 
8 | H-SLQYLCRFVIRQYTR-NH2 [Sample 2, SLQYLCRFVIRQYTR] | 6.25 µM | 25 µM |  | 
9 | H-SLTHLCRLEIRSSIK-NH2 [Sample 12, SLTHLCRLEIRSSIK] | 25 µM |  |  | 
10 | H-TLHQQCIRVLKNNID-NH2 [Comparative Sample 1, TLHQQCIRVLKNNID, reference compound] | >200 µM | >200 µM | no antimicrobial activity was detected | no antimicrobial activity was detected
11 | H-TLKKRCLQVVRKLVK-NH2 [Sample 5, TLKKRCLQVVRKLVK] | 3.13 µM | 3.13 µM |  | 
12 | H-TLLSLCRVAVRRALG-NH2 [Sample 4, TLLSLCRVAVRRALG] | 1.56 µM | 6.25 µM |  | 
13 | H-TLQHLCRKTVNGHLD-NH2 [Sample 6, TLQHLCRKTVNGHLD] | 50 µM |  |  | 
